“And” between values parts separate entries of the source, which are not always exact repeats. Equal values may be shown once.
How the values were obtained:
MET = MET (Homo sapiens, UniProt P08581); assay: Nanosyn kinase profiling, mobility shift assay; conditions: read-out: % inhibition by neratinib
PKC-ALPHA = PKC-ALPHA (Homo sapiens, UniProt P17252); assay: Nanosyn kinase profiling, mobility shift assay; conditions: read-out: % inhibition by neratinib
MLD–STZ C57BL/6J mice [1] = assay: MLD–STZ model: random fed blood glucose; assay type: in vivo, mouse; parameters: AUC glycemia: unit not given here
Method: (§1) C57Bl/6J mice were injected with 40 mg/kg streptozotocin or citrate buffer for 5 consecutive days. […] In d, basal glucose values were normalized to 100%. e Insulin secretion measured from retro-orbital blood draw during an ipGTT measured before (0 min) and 15 min after glucose injection; data are expressed as the ratio of secreted insulin at 15 min/0 min (stimulatory index). f The ratio of secreted insulin and glucose is calculated at fed state. g–i Mice were killed at day 35. g β-cell mass (given as percentage of the whole pancreatic section from ten sections spanning the width of the pancreas) and quantitative analyses from triple staining for h TUNEL or i Ki67, insulin, and DAPI expressed as percentage of TUNEL- or Ki67-positive β-cells ±SEM. An average number of 2331 (h), or 26369 (i) β-cells were counted. n = 9 mice/group for (a); n = 4–12 for (b); n = 5–15 for (c) and (d); n = 12–19 for (e); n = 8–14 for (f); n = 4–9 for (g); n = 4–11 for (h); and n = 6–11 mice/groupfor (i); all from three independent experiments).

PIM-1-KINASE = PIM-1-KINASE (Homo sapiens, UniProt P11309); assay: Nanosyn kinase profiling, mobility shift assay; conditions: read-out: % inhibition by neratinib
Chain of PIM-1-KINASE (P11309 whole entry): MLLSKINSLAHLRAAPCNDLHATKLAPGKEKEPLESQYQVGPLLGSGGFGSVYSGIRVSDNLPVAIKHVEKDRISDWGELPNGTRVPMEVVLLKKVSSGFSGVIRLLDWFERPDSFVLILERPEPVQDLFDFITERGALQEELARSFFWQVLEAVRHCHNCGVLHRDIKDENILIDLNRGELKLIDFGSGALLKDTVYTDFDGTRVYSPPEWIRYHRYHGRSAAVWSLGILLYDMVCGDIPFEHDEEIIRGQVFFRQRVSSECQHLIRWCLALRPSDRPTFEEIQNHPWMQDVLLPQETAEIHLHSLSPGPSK

MLD–STZ C57BL/6J mice [2] = assay: MLD–STZ model: intraperitoneal glucose tolerance test (ipGTT); assay type: in vivo, mouse; parameters: ipGTT glucose / AUC ipGTT: unit not given here
Method: as §1
For intraperitoneal glucose tolerance tests, mice were fasted 12 h overnight and injected i.p. with glucose (40%; B.Braun, Melsungen, Germany) at a dose of 1 g/kg body weight. Blood samples were obtained at time points 0, 15, 30, 60, 90, and 120 min for glucose measurements by using a Glucometer. For i.p. insulin tolerance tests, mice were injected with 0.75 U/kg body weight recombinant human insulin (Novolin, Novo Nordisk) after 4–5-h fasting, and glucose concentration was determined with the Glucometer. Insulin secretion was measured before (0 min) and after (15 and 30 min) i.p. injection of glucose (2 g/kg) and measured by using ultrasensitive mouse Elisa kit (ALPCO Diagnostics, Salem, NH).

MST2 = MST2 (Homo sapiens, UniProt Q13188); assay: biochemical; conditions: read-out: % inhibition by neratinib
Chain of MST2 (Q13188 whole entry, species assumed): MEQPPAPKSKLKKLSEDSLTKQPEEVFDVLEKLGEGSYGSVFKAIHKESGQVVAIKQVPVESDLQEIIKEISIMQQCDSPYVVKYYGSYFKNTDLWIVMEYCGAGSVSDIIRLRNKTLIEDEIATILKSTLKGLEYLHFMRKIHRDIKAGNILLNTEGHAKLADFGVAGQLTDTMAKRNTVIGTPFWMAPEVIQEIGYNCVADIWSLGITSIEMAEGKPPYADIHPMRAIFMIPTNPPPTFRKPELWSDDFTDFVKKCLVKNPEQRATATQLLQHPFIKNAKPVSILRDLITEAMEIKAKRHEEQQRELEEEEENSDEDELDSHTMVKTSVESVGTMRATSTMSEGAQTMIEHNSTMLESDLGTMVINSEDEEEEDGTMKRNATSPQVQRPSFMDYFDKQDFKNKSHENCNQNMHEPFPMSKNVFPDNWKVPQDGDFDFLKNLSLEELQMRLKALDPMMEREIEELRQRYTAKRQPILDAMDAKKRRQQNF

[3] = tested on: isolated islets from db/db mice; assay: Ex vivo β-cell apoptosis (TUNEL) in isolated db/db islets; assay type: cell-based, mouse; conditions: for TUNEL%: dbdb islets with Nera
PDGFR-ALPHA = PDGFR-ALPHA (Homo sapiens, UniProt P16234); assay: Nanosyn kinase profiling, mobility shift assay; conditions: read-out: % inhibition by neratinib
Chain of PDGFR-ALPHA (P16234 24-1089): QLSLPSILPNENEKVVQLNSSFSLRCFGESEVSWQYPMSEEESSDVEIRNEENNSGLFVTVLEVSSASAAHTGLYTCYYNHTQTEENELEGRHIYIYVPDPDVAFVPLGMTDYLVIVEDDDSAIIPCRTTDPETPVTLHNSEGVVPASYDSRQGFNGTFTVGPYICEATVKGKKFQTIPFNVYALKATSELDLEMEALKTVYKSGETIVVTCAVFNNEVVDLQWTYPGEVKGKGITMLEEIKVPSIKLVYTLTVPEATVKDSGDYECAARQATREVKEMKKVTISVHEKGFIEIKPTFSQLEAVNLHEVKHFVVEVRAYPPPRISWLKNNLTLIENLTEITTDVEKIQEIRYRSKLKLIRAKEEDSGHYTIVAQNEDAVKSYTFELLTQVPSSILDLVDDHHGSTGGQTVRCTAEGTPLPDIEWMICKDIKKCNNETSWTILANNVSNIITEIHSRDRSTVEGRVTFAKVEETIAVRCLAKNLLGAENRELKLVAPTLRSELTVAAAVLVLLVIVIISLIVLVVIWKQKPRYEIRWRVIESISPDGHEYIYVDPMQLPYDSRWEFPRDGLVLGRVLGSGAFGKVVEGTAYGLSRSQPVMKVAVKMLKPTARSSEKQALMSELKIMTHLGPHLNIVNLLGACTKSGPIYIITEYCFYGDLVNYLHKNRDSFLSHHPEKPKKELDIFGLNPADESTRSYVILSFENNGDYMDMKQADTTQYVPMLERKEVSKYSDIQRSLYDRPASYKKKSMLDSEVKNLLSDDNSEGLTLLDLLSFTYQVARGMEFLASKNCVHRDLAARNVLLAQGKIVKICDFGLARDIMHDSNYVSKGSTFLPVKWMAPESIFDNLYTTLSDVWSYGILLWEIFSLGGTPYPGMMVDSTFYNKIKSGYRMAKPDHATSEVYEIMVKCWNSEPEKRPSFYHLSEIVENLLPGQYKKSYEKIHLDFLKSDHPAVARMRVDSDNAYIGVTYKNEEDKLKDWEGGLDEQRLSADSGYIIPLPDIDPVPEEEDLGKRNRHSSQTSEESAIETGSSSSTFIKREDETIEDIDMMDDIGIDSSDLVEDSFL

MLD–STZ C57BL/6J mice [4] = assay: MLD–STZ model: β-cell proliferation (Ki67); assay type: in vivo, mouse
DYRK1A = DYRK1A (Homo sapiens, UniProt Q13627); assay: Nanosyn kinase profiling, mobility shift assay; conditions: read-out: % inhibition by neratinib
GSK-3-BETA = GSK-3-BETA (Homo sapiens, UniProt P49841); assay: Nanosyn kinase profiling, mobility shift assay; conditions: read-out: % inhibition by neratinib
Chain of GSK-3-BETA (P49841 whole entry): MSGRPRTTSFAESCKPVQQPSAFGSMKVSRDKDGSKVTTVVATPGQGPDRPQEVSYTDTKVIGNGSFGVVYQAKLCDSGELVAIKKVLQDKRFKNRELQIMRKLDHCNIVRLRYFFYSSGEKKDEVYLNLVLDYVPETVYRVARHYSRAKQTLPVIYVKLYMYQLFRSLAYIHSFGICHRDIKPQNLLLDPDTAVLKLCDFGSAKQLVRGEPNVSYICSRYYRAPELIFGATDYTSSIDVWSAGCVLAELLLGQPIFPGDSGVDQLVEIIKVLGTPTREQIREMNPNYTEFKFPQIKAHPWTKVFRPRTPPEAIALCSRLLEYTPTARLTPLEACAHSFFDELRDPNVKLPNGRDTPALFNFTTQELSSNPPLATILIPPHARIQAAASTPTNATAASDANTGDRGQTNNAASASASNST

Chain of MET (P08581 25-1390): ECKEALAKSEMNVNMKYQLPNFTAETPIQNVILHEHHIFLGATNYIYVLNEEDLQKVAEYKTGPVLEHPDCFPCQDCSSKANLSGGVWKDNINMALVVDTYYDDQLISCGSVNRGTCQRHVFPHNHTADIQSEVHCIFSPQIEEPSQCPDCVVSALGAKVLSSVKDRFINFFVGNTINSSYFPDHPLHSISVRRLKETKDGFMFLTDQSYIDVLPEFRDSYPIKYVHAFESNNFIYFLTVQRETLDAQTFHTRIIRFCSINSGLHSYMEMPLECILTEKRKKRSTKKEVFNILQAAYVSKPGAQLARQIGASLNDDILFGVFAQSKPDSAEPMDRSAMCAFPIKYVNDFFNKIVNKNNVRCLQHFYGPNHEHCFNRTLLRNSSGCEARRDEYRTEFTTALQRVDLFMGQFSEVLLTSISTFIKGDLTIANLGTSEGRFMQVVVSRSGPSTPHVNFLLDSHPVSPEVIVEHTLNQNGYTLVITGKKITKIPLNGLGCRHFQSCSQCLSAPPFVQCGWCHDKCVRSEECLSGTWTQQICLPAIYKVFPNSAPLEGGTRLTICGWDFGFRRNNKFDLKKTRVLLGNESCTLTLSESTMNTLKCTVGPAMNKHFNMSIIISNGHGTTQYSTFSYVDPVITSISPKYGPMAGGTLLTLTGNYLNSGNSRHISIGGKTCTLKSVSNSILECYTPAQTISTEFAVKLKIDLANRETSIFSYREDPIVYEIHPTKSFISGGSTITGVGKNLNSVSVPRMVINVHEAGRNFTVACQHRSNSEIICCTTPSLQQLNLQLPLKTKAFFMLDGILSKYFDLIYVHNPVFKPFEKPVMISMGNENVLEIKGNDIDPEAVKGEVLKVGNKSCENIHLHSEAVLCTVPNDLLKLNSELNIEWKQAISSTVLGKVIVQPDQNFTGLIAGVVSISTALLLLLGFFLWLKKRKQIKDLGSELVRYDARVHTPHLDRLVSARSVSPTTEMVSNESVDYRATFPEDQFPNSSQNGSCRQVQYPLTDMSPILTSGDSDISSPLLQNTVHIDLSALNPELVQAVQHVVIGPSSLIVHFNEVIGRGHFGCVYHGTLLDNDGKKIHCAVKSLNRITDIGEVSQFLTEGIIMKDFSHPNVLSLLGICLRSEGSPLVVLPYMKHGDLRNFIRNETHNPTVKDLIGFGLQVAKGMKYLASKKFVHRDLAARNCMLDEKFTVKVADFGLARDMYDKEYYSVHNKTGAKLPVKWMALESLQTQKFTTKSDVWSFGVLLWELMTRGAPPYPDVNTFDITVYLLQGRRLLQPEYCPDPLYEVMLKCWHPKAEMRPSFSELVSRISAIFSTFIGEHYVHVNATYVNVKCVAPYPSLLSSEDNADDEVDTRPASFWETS

## CCOc1cc2ncc(C#N)c(Nc3ccc(OCc4ccccn4)c(Cl)c3)c2cc1NC(=O)/C=C/CN(C)C [neratinib]
MET
  inhibition at 10 µM: 28%
PKC-ALPHA
  inhibition at 10 µM: 7%
MLD–STZ C57BL/6J mice [1]; 5 mg/kg i.p. daily
  glycemia in nondiabetic control mice: no effect on glycemia
MLD–STZ C57BL/6J mice [1]; 5 mg/kg i.p. daily, 35 days
  glucose levels in STZ mice: lower glucose levels during the entire 35 days
MLD–STZ C57BL/6J mice [1]; NeraCtr (no STZ, neratinib 5 mg/kg i.p. daily), day 0, individual mice
  glycemia: 136 mg/dL and 120 mg/dL and 165 mg/dL and 122 mg/dL and 87 mg/dL and 80 mg/dL and 78 mg/dL and 130 mg/dL
MLD–STZ C57BL/6J mice [1]; NeraCtr, Mean
  AUC glycemia: 4215.5
MLD–STZ C57BL/6J mice [1]; NeraCtr, day 3, individual mice
  glycemia: 139 mg/dL and 103 mg/dL and 119 mg/dL and 117 mg/dL and 104 mg/dL and 116 mg/dL and 114 mg/dL and 149 mg/dL and 112 mg/dL
MLD–STZ C57BL/6J mice [1]; NeraCtr, day 7, individual mice
  glycemia: 100 mg/dL and 134 mg/dL and 130 mg/dL and 92 mg/dL and 120 mg/dL and 106 mg/dL and 114 mg/dL and 125 mg/dL and 111 mg/dL
MLD–STZ C57BL/6J mice [1]; NeraCtr, day 9, individual mice
  glycemia: 108 mg/dL and 93 mg/dL and 122 mg/dL and 89 mg/dL and 96 mg/dL and 109 mg/dL and 111 mg/dL and 90 mg/dL
MLD–STZ C57BL/6J mice [1]; NeraCtr, day 12, individual mice
  glycemia: 138 mg/dL and 112 mg/dL and 125 mg/dL and 100 mg/dL and 117 mg/dL and 105 mg/dL and 86 mg/dL and 133 mg/dL
MLD–STZ C57BL/6J mice [1]; NeraCtr, day 16, individual mice
  glycemia: 104 mg/dL and 92 mg/dL and 112 mg/dL and 106 mg/dL and 96 mg/dL and 88 mg/dL and 118 mg/dL and 93 mg/dL
MLD–STZ C57BL/6J mice [1]; NeraCtr, day 22, individual mice
  glycemia: 115 mg/dL and 102 mg/dL and 145 mg/dL and 144 mg/dL and 132 mg/dL and 113 mg/dL and 110 mg/dL and 103 mg/dL and 146 mg/dL
MLD–STZ C57BL/6J mice [1]; NeraCtr, day 28, individual mice
  glycemia: 109 mg/dL and 137 mg/dL and 141 mg/dL and 103 mg/dL and 110 mg/dL and 127 mg/dL and 112 mg/dL and 156 mg/dL and 106 mg/dL
MLD–STZ C57BL/6J mice [1]; NeraCtr, day 36, individual mice
  glycemia: 156 mg/dL and 132 mg/dL and 145 mg/dL and 146 mg/dL and 111 mg/dL and 114 mg/dL and 120 mg/dL and 109 mg/dL
MLD–STZ C57BL/6J mice [1]; NeraCtr, individual mice
  AUC glycemia: 4340.5 and 4217 and 4748 and 4310 and 3997 and 3944.5 and 3991 and 4247 and 4144.5
MLD–STZ C57BL/6J mice [1]; NeraSTZ (STZ + neratinib 5 mg/kg i.p. daily), day 0, individual mice
  glycemia: 112 mg/dL and 125 mg/dL and 148 mg/dL
MLD–STZ C57BL/6J mice [1]; NeraSTZ, Mean
  AUC glycemia: 7519.28
MLD–STZ C57BL/6J mice [1]; NeraSTZ, day 3, individual mice
  glycemia: 94 mg/dL and 102 mg/dL and 117 mg/dL
MLD–STZ C57BL/6J mice [1]; NeraSTZ, day 7, individual mice
  glycemia: 117 mg/dL and 131 mg/dL and 93 mg/dL
MLD–STZ C57BL/6J mice [1]; NeraSTZ, day 9, individual mice
  glycemia: 179 mg/dL and 138 mg/dL and 134 mg/dL
MLD–STZ C57BL/6J mice [1]; NeraSTZ, day 12, individual mice
  glycemia: 250 mg/dL and 310 mg/dL and 180 mg/dL
MLD–STZ C57BL/6J mice [1]; NeraSTZ, day 16, individual mice
  glycemia: 173 mg/dL and 303 mg/dL
MLD–STZ C57BL/6J mice [1]; NeraSTZ, day 22, individual mice
  glycemia: 209 mg/dL and 344 mg/dL
MLD–STZ C57BL/6J mice [1]; NeraSTZ, day 28, individual mice
  glycemia: 213 mg/dL and 229 mg/dL
MLD–STZ C57BL/6J mice [1]; NeraSTZ, day 36, individual mice
  glycemia: 214 mg/dL and 337 mg/dL and 230 mg/dL
MLD–STZ C57BL/6J mice [1]; NeraSTZ, individual mice
  AUC glycemia: 6636.5 and 8897.5 and 6783.5 and 7009 and 8879.5 and 5194.5 and 8003.5 and 8416 and 7853.5
PIM-1-KINASE
  inhibition at 10 µM: 13%
MLD–STZ C57BL/6J mice [2]; 5 mg/kg i.p. daily
  glucose tolerance in STZ mice: significantly improved glucose tolerance
MLD–STZ C57BL/6J mice [2]; NeraCtr, 0 min, Mean
  ipGTT glucose: 59.25
MLD–STZ C57BL/6J mice [2]; NeraCtr, 0 min after glc, individual mice
  ipGTT glucose: 51 and 48 and 70 and 68
MLD–STZ C57BL/6J mice [2]; NeraCtr, 15 min, Mean
  ipGTT glucose: 210.75
MLD–STZ C57BL/6J mice [2]; NeraCtr, 15 min after glc, individual mice
  ipGTT glucose: 211 and 183 and 258 and 191
MLD–STZ C57BL/6J mice [2]; NeraCtr, 30 min, Mean
  ipGTT glucose: 316.5
MLD–STZ C57BL/6J mice [2]; NeraCtr, 30 min after glc, individual mice
  ipGTT glucose: 290 and 203 and 500 and 273
MLD–STZ C57BL/6J mice [2]; NeraCtr, 60 min, Mean
  ipGTT glucose: 219.25
MLD–STZ C57BL/6J mice [2]; NeraCtr, 60 min after glc, individual mice
  ipGTT glucose: 166 and 171 and 373 and 167
MLD–STZ C57BL/6J mice [2]; NeraCtr, 90 min, Mean
  ipGTT glucose: 134.5
MLD–STZ C57BL/6J mice [2]; NeraCtr, 90 min after glc, individual mice
  ipGTT glucose: 133 and 136 and 158 and 111
MLD–STZ C57BL/6J mice [2]; NeraCtr, 120 min, MEAN
  ipGTT glucose: 96
MLD–STZ C57BL/6J mice [2]; NeraCtr, 120 min after glc, individual mice
  ipGTT glucose: 91 and 96 and 116 and 81
MLD–STZ C57BL/6J mice [2]; NeraCtr, individual mice
  AUC ipGTT: 20407.5 and 18322.5 and 14535 and 19072.5
MLD–STZ C57BL/6J mice [2]; NeraSTZ, 0 min, mean line
  ipGTT glucose: 61.5
MLD–STZ C57BL/6J mice [2]; NeraSTZ, 0 min after glc, individual mice
  ipGTT glucose: 67 and 66 and 51 and 57 and 80 and 63 and 62 and 69 and 65 and 44
MLD–STZ C57BL/6J mice [2]; NeraSTZ, 15 min, mean line
  ipGTT glucose: 285.917
MLD–STZ C57BL/6J mice [2]; NeraSTZ, 15 min after glc, individual mice
  ipGTT glucose: 304 and 272 and 259 and 246 and 291 and 315 and 312 and 420 and 217 and 264
MLD–STZ C57BL/6J mice [2]; NeraSTZ, 30 min, mean line
  ipGTT glucose: 319.5
MLD–STZ C57BL/6J mice [2]; NeraSTZ, 30 min after glc, individual mice
  ipGTT glucose: 308 and 348 and 303 and 268 and 319 and 424 and 341 and 371 and 315 and 292 and 282 and 263
MLD–STZ C57BL/6J mice [2]; NeraSTZ, 60 min, mean line
  ipGTT glucose: 284.417
MLD–STZ C57BL/6J mice [2]; NeraSTZ, 60 min after glc, individual mice
  ipGTT glucose: 274 and 307 and 368 and 214 and 271 and 308 and 291 and 343 and 321 and 283 and 219
MLD–STZ C57BL/6J mice [2]; NeraSTZ, 90 min after glc, individual mice
  ipGTT glucose: 181 and 290 and 234 and 159 and 228 and 264 and 184 and 260 and 250 and 205 and 248 and 195
MLD–STZ C57BL/6J mice [2]; NeraSTZ, 120 min after glc, individual mice
  ipGTT glucose: 136 and 229 and 175 and 112 and 213 and 180 and 169 and 210 and 211 and 164 and 187
MLD–STZ C57BL/6J mice [2]; NeraSTZ, individual mice
  AUC ipGTT: 27682.5 and 33750 and 31770 and 23017.5 and 30135 and 34725 and 29565 and 36360 and 31732.5
MST2
  inhibition at 10 µM: 97%
[3]; 10 μM, 24 h
  β-cell survival in db/db islets ex vivo: fully restored β-cell survival
[3]; MEAN
  TUNEL%: 1.158%
[3]; individual replicates
  TUNEL%: 1.875% and 1.213% and 0.7124% and 0.9025% and 0.3448% and 1.9025%
PDGFR-ALPHA
  inhibition at 10 µM: 31%
MLD–STZ C57BL/6J mice [4]; NeraCtr group (no STZ), MEAN
  Ki67%/ mouse: 0.3774%
MLD–STZ C57BL/6J mice [4]; NeraCtr group (no STZ), individual mice
  Ki67%/ mouse: 0% and 2% and 1.019%
MLD–STZ C57BL/6J mice [4]; NeraSTZ group, MEAN
  Ki67%/ mouse: 3.98%
MLD–STZ C57BL/6J mice [4]; NeraSTZ group, individual mice
  Ki67%/ mouse: 0% and 6.981% and 5.492% and 7.984% and 3.425%
DYRK1A
  inhibition at 10 µM: 3%
GSK-3-BETA
  inhibition at 10 µM: 23%
